Test results published in PubChem BioAssay AID1745844 (Carcinogenic Potency Database (CPDB), 2022).
Calls of active or inactive are those of the source. How the calls were made is not given here.

Test system: rodent lifetime carcinogenesis bioassay, tumor incidence TD50
Experiment: carcinogenic potency in animals, long-term in vivo studies, CPDB compilation (AID 1745844)

## COc1cc2c(c3c1c(=O)c1ccccc1n3C)C=CC(C)(C)O2
mouse, strain B6C3F1, females, i.p., site: liver, lesion: hepatocellular adenoma + hepatocellular carcinoma + neoplastic nodule, dosed 48 weeks, study length 78 weeks
  TD50: 2.46 mg/kg/day
mouse, strain B6C3F1, females, i.p., site: lung, lesion: alveolar/bronchiolar adenoma + alveolar/bronchiolar carcinoma, dosed 48 weeks, study length 78 weeks
  TD50: 2.46 mg/kg/day
rat, strain Sprague-Dawley, females, i.p., site: any site (literature study), lesion: several types, types named in the paper, dosed 52 weeks, study length 80 weeks
  TD50: 0.568 mg/kg/day
rat, strain Sprague-Dawley, females, i.p., site: liver, lesion: hepatocellular adenoma + hepatocellular carcinoma + neoplastic nodule, dosed 52 weeks, study length 80 weeks
  TD50: 8.75 mg/kg/day
rat, strain Sprague-Dawley, females, i.p., site: mammary gland + peritoneum, lesion: adenocarcinoma, NOS + cystadenocarcinoma, NOS + cystadenoma, NOS + fibroadenoma + papillary adenocarcinoma + fibrosarcoma + mesothel, dosed 52 weeks, study length 80 weeks
  TD50: 0.873 mg/kg/day
rat, strain Sprague-Dawley, females, i.p., site: mammary gland, lesion: adenocarcinoma, NOS + cystadenocarcinoma, NOS + cystadenoma, NOS + fibroadenoma + papillary adenocarcinoma, dosed 52 weeks, study length 80 weeks
  TD50: 0.395 mg/kg/day
rat, strain Sprague-Dawley, females, i.p., site: mammary gland, lesion: fibroadenoma, dosed 52 weeks, study length 80 weeks
  TD50: 0.455 mg/kg/day
rat, strain Sprague-Dawley, females, i.p., site: peritoneum, lesion: fibrosarcoma + mesothelioma, malignant + sarcoma, NOS, dosed 52 weeks, study length 80 weeks
  TD50: 5.86 mg/kg/day
rat, strain Sprague-Dawley, females, i.p., site: peritoneum, lesion: sarcoma, NOS, dosed 52 weeks, study length 80 weeks
  TD50: 11.4 mg/kg/day
rat, strain Sprague-Dawley, males, i.p., site: adrenal gland, lesion: cortical adenoma, dosed 51 weeks, study length 80 weeks
  TD50: 1.85 mg/kg/day
rat, strain Sprague-Dawley, males, i.p., site: all sites + bone + peritoneum + vertebra, lesion: osteosarcoma + fibrosarcoma + mesothelioma, NOS + mesothelioma, malignant + sarcoma, NOS, dosed 51 weeks, study length 80 weeks
  TD50: 0.497 mg/kg/day
rat, strain Sprague-Dawley, males, i.p., site: all sites, lesion: osteosarcoma, dosed 51 weeks, study length 80 weeks
  TD50: 0.698 mg/kg/day
rat, strain Sprague-Dawley, males, i.p., site: any site (literature study), lesion: several types, types named in the paper, dosed 51 weeks, study length 80 weeks
  TD50: 0.227 mg/kg/day
rat, strain Sprague-Dawley, males, i.p., site: bone + vertebra, lesion: osteosarcoma, dosed 51 weeks, study length 80 weeks
  TD50: 1.03 mg/kg/day
rat, strain Sprague-Dawley, males, i.p., site: liver, lesion: hepatocellular adenoma + hepatocellular carcinoma + neoplastic nodule, dosed 51 weeks, study length 80 weeks
  TD50: 2.11 mg/kg/day
rat, strain Sprague-Dawley, males, i.p., site: peritoneum, lesion: fibrosarcoma + mesothelioma, NOS + mesothelioma, malignant + sarcoma, NOS, dosed 51 weeks, study length 80 weeks
  TD50: 1.49 mg/kg/day

## Cc1ccc(C)c(N)c1
mouse, strain CD-1 HaM/ICR, females, in feed, site: any site (literature study), lesion: several types, types named in the paper, dosed 68 weeks, study length 94 weeks
  TD50: 475 mg/kg/day
mouse, strain CD-1 HaM/ICR, females, in feed, site: liver, lesion: hepatoma, dosed 68 weeks, study length 94 weeks
  TD50: 552 mg/kg/day
mouse, strain CD-1 HaM/ICR, females, in feed, site: liver, lesion: several types, types named in the paper, dosed 68 weeks, study length 94 weeks
  TD50: 552 mg/kg/day
mouse, strain CD-1 HaM/ICR, females, in feed, site: lung, lesion: several types, types named in the paper, dosed 68 weeks, study length 94 weeks
  TD50: 1290 mg/kg/day (inactive)
mouse, strain CD-1 HaM/ICR, males, in feed, site: all sites, lesion: all vascular tumors, dosed 68 weeks, study length 94 weeks
  TD50: 723 mg/kg/day
mouse, strain CD-1 HaM/ICR, males, in feed, site: any site (literature study), lesion: several types, types named in the paper, dosed 68 weeks, study length 94 weeks
  TD50: 321 mg/kg/day
mouse, strain CD-1 HaM/ICR, males, in feed, site: liver, lesion: several types, types named in the paper, dosed 68 weeks, study length 94 weeks
  TD50: 805 mg/kg/day
mouse, strain CD-1 HaM/ICR, males, in feed, site: lung, lesion: several types, types named in the paper, dosed 68 weeks, study length 94 weeks
  TD50: 765 mg/kg/day (inactive)
rat, strain Charles River CD (Sprague-Dawley), males, in feed, site: any site (literature study), lesion: several types, types named in the paper, dosed 77 weeks, study length 103 weeks
  TD50: 67.2 mg/kg/day
rat, strain Charles River CD (Sprague-Dawley), males, in feed, site: liver, lesion: several types, types named in the paper, dosed 77 weeks, study length 103 weeks
  TD50: 3260 mg/kg/day (inactive)
rat, strain Charles River CD (Sprague-Dawley), males, in feed, site: subcutaneous tissue, lesion: several types, types named in the paper, dosed 77 weeks, study length 103 weeks
  TD50: 152 mg/kg/day

## CCNc1nc(Cl)nc(NC(C)(C)C#N)n1
rat, strain Charles River CD (Sprague-Dawley), females, in feed, site: liver, lesion: hepatocellular adenoma, dosed 105 weeks, study length 105 weeks
  TD50: 280 mg/kg/day
rat, strain Charles River CD (Sprague-Dawley), females, in feed, site: mammary gland, lesion: adenocarcinoma, dosed 105 weeks, study length 105 weeks
  TD50: 6.65 mg/kg/day
rat, strain Charles River CD (Sprague-Dawley), females, in feed, site: mammary gland, lesion: benign tumor, dosed 52 weeks, study length 52 weeks
  TD50: 8.77 mg/kg/day
rat, strain Charles River CD (Sprague-Dawley), females, in feed, site: mammary gland, lesion: carcinosarcoma, dosed 105 weeks, study length 105 weeks
  TD50: 140 mg/kg/day
rat, strain Charles River CD (Sprague-Dawley), females, in feed, site: mammary gland, lesion: fibroadenoma, dosed 52 weeks, study length 52 weeks
  TD50: 3.03 mg/kg/day
rat, strain Charles River CD (Sprague-Dawley), females, in feed, site: mammary gland, lesion: malignant tumor, dosed 105 weeks, study length 105 weeks
  TD50: 6.33 mg/kg/day
rat, strain Charles River CD (Sprague-Dawley), females, in feed, site: mammary gland, lesion: several types, types named in the paper, dosed 105 weeks, study length 105 weeks
  TD50: 22.9 mg/kg/day
rat, strain Charles River CD (Sprague-Dawley), males, in feed, site: liver, lesion: hepatocellular adenoma, dosed 104 weeks, study length 104 weeks
  carcinogen call: negative (inactive)
rat, strain Charles River CD (Sprague-Dawley), males, in feed, site: liver, lesion: one or several types, types not named, dosed 52 weeks, study length 52 weeks
  carcinogen call: negative (inactive)

## CC
mouse, strain B6C3F1, females, in feed, site: any site (literature study), lesion: several types, types named in the paper, dosed 103 weeks, study length 105 weeks
  carcinogen call: negative (inactive)
mouse, strain B6C3F1, females, in feed, site: forestomach, lesion: several types, types named in the paper, dosed 96 weeks, study length 106 weeks
  TD50: 111000 mg/kg/day (inactive)
mouse, strain B6C3F1, females, in feed, site: liver, lesion: hepatocellular adenoma + hepatocellular carcinoma + neoplastic nodule, dosed 103 weeks, study length 105 weeks
  TD50: 31100 mg/kg/day
mouse, strain B6C3F1, females, in feed, site: liver, lesion: several types, types named in the paper, dosed 96 weeks, study length 106 weeks
  carcinogen call: negative (inactive)
mouse, strain B6C3F1, females, in feed, site: lung, lesion: alveolar/bronchiolar adenoma + alveolar/bronchiolar carcinoma, dosed 103 weeks, study length 105 weeks
  TD50: 24700 mg/kg/day
mouse, strain B6C3F1, females, in feed, site: lung, lesion: several types, types named in the paper, dosed 96 weeks, study length 106 weeks
  carcinogen call: negative (inactive)
mouse, strain B6C3F1, males, in feed, site: all sites, lesion: hemangioma, dosed 103 weeks, study length 105 weeks
  TD50: 80800 mg/kg/day (inactive)
mouse, strain B6C3F1, males, in feed, site: any site (literature study), lesion: several types, types named in the paper, dosed 103 weeks, study length 105 weeks
  TD50: 46000 mg/kg/day
mouse, strain B6C3F1, males, in feed, site: forestomach, lesion: squamous-cell papilloma, dosed 96 weeks, study length 106 weeks
  TD50: 240000 mg/kg/day (inactive)
mouse, strain B6C3F1, males, in feed, site: liver, lesion: several types, types named in the paper, dosed 96 weeks, study length 106 weeks
  carcinogen call: negative (inactive)
mouse, strain B6C3F1, males, in feed, site: lung, lesion: several types, types named in the paper, dosed 96 weeks, study length 106 weeks
  carcinogen call: negative (inactive)
rat, strain Fischer 344, females, in feed, site: any site (literature study), lesion: several types, types named in the paper, dosed 103 weeks, study length 105 weeks
  TD50: 8310 mg/kg/day (inactive)
rat, strain Fischer 344, males, in feed, site: any site (literature study), lesion: several types, types named in the paper, dosed 103 weeks, study length 105 weeks
  TD50: 7970 mg/kg/day (inactive)
rat, strain Fischer 344, males, in feed, site: liver, lesion: hepatocellular adenoma + hepatocellular carcinoma + neoplastic nodule, dosed 103 weeks, study length 105 weeks
  TD50: 33500 mg/kg/day

## O=[N+]([O-])c1ccc(O)c([N+](=O)[O-])c1
mouse, strain DBA, females, in feed, site: mammary gland, lesion: carcinoma, dosed 90 weeks, study length 90 weeks
  carcinogen call: negative (inactive)

## Cc1ccc2c(-c3ccccc3)nc(=O)n(C(C)C)c2c1
mouse, strain Charles River CD1, females, in feed, site: liver, lesion: hemangioendothelial sarcoma, dosed 86 weeks, study length 86 weeks
  carcinogen call: negative (inactive)
mouse, strain Charles River CD1, females, in feed, site: liver, lesion: hemangioma, dosed 86 weeks, study length 86 weeks
  TD50: 48700 mg/kg/day (inactive)
mouse, strain Charles River CD1, females, in feed, site: liver, lesion: hepatocellular carcinoma, dosed 86 weeks, study length 86 weeks
  carcinogen call: negative (inactive)
mouse, strain Charles River CD1, females, in feed, site: lung, lesion: alveolar/bronchiolar adenoma, dosed 86 weeks, study length 86 weeks
  carcinogen call: negative (inactive)
mouse, strain Charles River CD1, females, in feed, site: lung, lesion: alveolar/bronchiolar carcinoma, dosed 86 weeks, study length 86 weeks
  carcinogen call: negative (inactive)
mouse, strain Charles River CD1, males, in feed, site: liver, lesion: hemangioma, dosed 86 weeks, study length 86 weeks
  TD50: 14000 mg/kg/day (inactive)
mouse, strain Charles River CD1, males, in feed, site: liver, lesion: hepatocellular carcinoma, dosed 86 weeks, study length 86 weeks
  TD50: 4350 mg/kg/day (inactive)
mouse, strain Charles River CD1, males, in feed, site: lung, lesion: alveolar/bronchiolar adenoma, dosed 86 weeks, study length 86 weeks
  TD50: 5450 mg/kg/day (inactive)
mouse, strain Charles River CD1, males, in feed, site: lung, lesion: alveolar/bronchiolar carcinoma, dosed 86 weeks, study length 86 weeks
  carcinogen call: negative (inactive)

## CC[N+]([O-])=NC
rat, strain Fischer 344, males, in drinking water, site: colon, lesion: several types, types named in the paper, dosed 30 weeks, study length 55 weeks
  TD50: 0.125 mg/kg/day
rat, strain Fischer 344, males, in drinking water, site: ileum, lesion: one or several types, types not named, dosed 30 weeks, study length 55 weeks
  TD50: 0.221 mg/kg/day
rat, strain Fischer 344, males, in drinking water, site: liver, lesion: hemangiosarcoma, dosed 30 weeks, study length 55 weeks
  TD50: 0.0391 mg/kg/day
rat, strain Fischer 344, males, in drinking water, site: liver, lesion: hepatocellular carcinoma, dosed 30 weeks, study length 55 weeks
  TD50: 0.0189 mg/kg/day
rat, strain Fischer 344, males, in drinking water, site: liver, lesion: neurosarcoma, dosed 30 weeks, study length 55 weeks
  TD50: 0.0832 mg/kg/day
rat, strain Fischer 344, males, in drinking water, site: liver, lesion: several types, types named in the paper, dosed 30 weeks, study length 55 weeks
  carcinogen call: positive

## CC(C)C[C@H]1C(=O)N2CCC[C@H]2[C@]2(O)O[C@](NC(=O)[C@@H]3C=C4c5cccc6[nH]c(Br)c(c56)C[C@H]4N(C)C3)(C(C)C)C(=O)N12
mouse, strain OF1, females, in feed, site: any site (literature study), lesion: several types, types named in the paper, dosed 74 weeks, study length 74 weeks
  TD50: 175 mg/kg/day (inactive)
mouse, strain OF1, females, in feed, site: liver, lesion: neoplastic nodule, dosed 74 weeks, study length 74 weeks
  carcinogen call: negative (inactive)
mouse, strain OF1, females, in feed, site: lung, lesion: adenoma, dosed 74 weeks, study length 74 weeks
  carcinogen call: negative (inactive)
mouse, strain OF1, males, in feed, site: any site (literature study), lesion: several types, types named in the paper, dosed 74 weeks, study length 74 weeks
  TD50: 68 mg/kg/day (inactive)
mouse, strain OF1, males, in feed, site: liver, lesion: neoplastic nodule, dosed 74 weeks, study length 74 weeks
  TD50: 308 mg/kg/day (inactive)
mouse, strain OF1, males, in feed, site: lung, lesion: adenoma, dosed 74 weeks, study length 74 weeks
  TD50: 618 mg/kg/day (inactive)
rat, strain OFA (Sprague-Dawley derived), females, in feed, site: uterus, lesion: malignant tumor, dosed 100 weeks, study length 100 weeks
  TD50: 117 mg/kg/day
rat, strain OFA (Sprague-Dawley derived), females, in feed, site: uterus, lesion: several types, types named in the paper, dosed 100 weeks, study length 100 weeks
  TD50: 33.7 mg/kg/day
